Counter-ions that a name gives are not always drawn. Like-named read-outs stand apart in the source and are kept apart here.
Key:
A549 cells [1] = test: Single-dose CCK-8 cell viability screening (adherent cells); format: cell-based, human; conditions: Homo sapiens, read-out: % Viability (50 uM, 48 h) A549
[2] = as above; format: cell-based, human; conditions: Homo sapiens, average of A549 and Jurkat % viability, 50 uM, 48 h
A549 cells [3] = test: Dose-dependent CCK8 viability assay; format: cell-based, human; conditions: Homo sapiens
Procedure: (§1) In this example, dose-dependent CCK8 Viability assay was performed to determine the IC50 (the concentration of compound to achieve 50% viability) of several of the hit compounds identified from Example 2. A variety of cell lines were used: • Jurkat cells: Human leukemia • A549 cells: Human NSCLC • KP-1 cells: Mouse NSCLC with KRAS and P53 mutations • MCF-7 cells: Human breast cancer
(§2) Method for Adherent Cells (A549, MCF-7 and KP-1 Cells)
(§3) 5000 cells/100 uL were seeded in 96-well plates and incubate at 37° C.+5% CO2 overnight. Media were replaced with 100 uL of compound per well in 6 replicates in a series of 2-fold dilutions. The following controls were prepared.
(§4) Blank control: 100 uL 0.1% DMSO in media with no cells per well.
(§5) Positive control: 100 uL of 10 uM 5-flurouracil per well.
(§6) Negative control: 100 uL of 0.1% DMSO in media per well.
(§7) Each 96-well plate included 1 compound in 7 concentrations and a complete set of controls (in 6 replicates).
(§8) Cells were incubated at 37° C.+5% CO2 for 46 hours. 10 uL of CCK8 solution was added to each well. Cells were incubated at 37° C.+5% CO2 for 2 hours. Absorbance at 450 nm was measured using a multiplate reader.
(§9) Viability was calculated using the equation: […]

Jurkat cells = test: Single-dose CCK-8 cell viability screening (suspension cells); format: cell-based, human; conditions: Homo sapiens, 48 h
[4] = Hydrolytic stability in buffer monitored by LC-MS/MS
HMC3 cells [5] = test: Cytotoxicity, cell viability of HMC3 cells; format: cell-based; conditions: 24 h treatment
Excerpt: Now referring to FIG. 11A, a chart showing the cell viability (%) of HMC3 cells treated with SXQ087-1, XBB-037 or bilobalide.

HMC3 cells [6] = test: Intracellular ROS level by CellROX (fluorescent imaging and flow cytometry); format: cell-based; conditions: HMC3, 50 nM RSL3 2 h, then 50 μM compound 3 h
Procedure: (§10) For flow cytometry, HMC3 cells (seeded 50,000 cells per well on 24-well plate one day prior to the experiment) were pretreated with 50 nM RSL3 for 2 h. […] After which medium was replaced with BODIPY™ 581/591C11 (10 μM, Invitrogen) or CellROX™ Green (5 μM, Invitrogen) for 30 min staining. Cells were then washed 3 times with PBS and collected. Fluorescence was measured by BD FACSympgony A5.2 SORP Flow Cell Analyzer (BD Biosciences).
For fluorescent imaging, 10,000 cells per well of HMC3 were laid on cover slip and incubated overnight. After the same compound treatment as described above in this section, cells were subsequently incubated with CellROX™ Green and Hoechst 34580 (MCE) for 30 min. After incubation, cells were washed 3 times gently with PBS. Cover slips were then attached to glass slides by Anti-Fade Fluorescence Mounting Medium (Abcam) and imaged via ECLIPSE Ti fluorescence microscope (Nikon). Fluorescent intensity was quantified using imageJ software.
To further evaluate the anti-ferroptotic properties of bilobalide analogues, we tested its effect on the total level of intracellular reactive oxygen species (ROS), we performed fluorescent staining on the HMC3 cell line using CellROX, which is a probe which can emit green fluorescence after reacting with ROS. […]

[7] = tested on: HMC3 microglial cell line; test: RSL3-induced ferroptosis model, cell viability (CCK-8); format: cell-based; conditions: HMC3, multiple doses of RSL3, 50 μM compound
[8] = tested on: HT22 mouse hippocampal cell line; test: as above; conditions: HT22, multiple doses of RSL3, 50 μM compound
Procedure: In this example, the anti-ferroptotic properties of the BB analogues described in preceding examples were evaluated by a RSL3-induced ferroptosis model. […] To evaluate the anti-ferroptosis activity of BB analogues, we developed a phenotypic screening based on RSL3-induced ferroptosis model on HT22 mouse hippocampal cell line, HMC3 microglial cell line and BV-2 murine microglial cell line which were co-treated or pre-treated with RSL3 and BB analogues for 2-24 h, and the cell viability was subsequently measured.
HMC3 cell line was maintained in Minimum Essential Medium (MEM, Gibco) supplemented with 1× non-essential amino acid (Gibco), 1 mM sodium pyruvate (Gibco), 10% fetal bovine serum (FBS) (Gibco) and 1% penicillin/streptomycin (Gibco). BV-2 cell line was maintained in Roswell Park Memorial Institute (RPMI) 1640 medium (Gibco) supplemented with 10% FBS and 1% penicillin/streptomycin, and HT22 cell line was maintained in Dulbecco's Modified Eagle's Medium (DMEM) (Gibco) supplemented with 10% FBS and 1% penicillin/streptomycin. All cells were incubated at 37° C. in a humidified atmosphere under 5% CO2.
For phenotypic screening of bilobalide (BB) analogues, 5,000 cells per well (100 uL volume) of HT22, HMC3 or BV-2 cells were placed in 96-well plate and allowed to adhere for 22 h. After which, cells were pre-treated with 200 nM (on HT22, HMC3) or 500 nM (on BV-2) of RSL3 (Bidepharm) for 2 h respectively. Medium was then replaced by 50 μM BB analogues and followed by 22 h incubation subsequently. Cell viability was measured using cell counting kit-8 (CCK-8) (MCE). For dose-response of BB analogues, RSL3, HT22 and HMC3 cells (seeded on 96-well plates at 5,000 cells per well) were treated with multiple doses of RSL3 for 2 h. […] Cell viability was measured after 22 h treatment by CCK-8. […] Cell viability was measured by CCK-8 using CLARIOstar monochromator multimode plate reader under 450 nm wavelength.
In this example, the cells were pre-treated with RSL3 (200 nM for HT22 and HMC3, 500 nM for BV-2) for two hours, followed by bilobalide analogues treatment (50 PM) for 22 hours. Cell viability was measured using cell counting kit-8 (CCK-8); n=5 technical replicates. […] Such effect was further investigated by treating the cell lines with various doses of RSL3.

HMC3 cells [9] = test: Lipid peroxidation level by flow cytometry using C11-BODIPY; format: cell-based; conditions: HMC3, 50 nM RSL3 2 h, then 50, 25 and 12.5 μM compound 3 h
Procedure: as §10
Disequilibrium ROS level acts as a direct initiator of lipid peroxidation, which is one of the major hallmarks of ferroptosis. In this example, HMC3 cells according to the conditions in Table 4 were subjected to measurement of lipid peroxidation level using flow cytometry and the lipid peroxidation sensor C11-BODIPY.
For flow cytometry, HMC3 cells (seeded 50,000 cells per well on 24-well plate one day prior to the experiment) were pretreated with 50 nM RSL3 for 2 h. After RSL3 treatment, medium was replaced by DMSO (0.1%) only, SXQ087-1 (10, 5 and 2.5 μM), following by 3 h treatment. After which medium was replaced with BODIPY™ 581/591C11 (10 μM, Invitrogen) for 30 min staining. Cells were then washed 3 times with PBS and collected. Fluorescence was measured by BD FACSympgony A5.2 SORP Flow Cell Analyzer (BD Biosciences).
Lipid peroxidation is one of the major hallmarks of ferroptosis. In this example, HMC3 cells according to the conditions in Table 5 were subjected to measurement of lipid peroxidation level using flow cytometry and the lipid peroxidation sensor C11-BODIPY.

KP-1 cells = test: Dose-dependent CCK8 viability assay; format: cell-based; conditions: Mus musculus, 48 hours
Procedure: as §1, §2, §3, §4, §5, §6, §7, §8, §9

[10] = A549, 48 h, A549 cells, 50 uM, 48 h, CCK-8
[11] = Jurkat, Jurkat cells, 50 uM, CCK-8, read-out: % Viability (50 uM, 48 h) Jurkat
[12] = buffer pH 7.4, within the first 10 hours

Compound `CC(C)(C)[C@]1(O)C[C@@H]2OC(=O)C[C@@]23C(=O)O[C@@H]2N(c4ccc(C(F)(F)F)cc4)C(=O)[C@H](OC(=O)c4ccccc4)[C@]213` [P-29, (3aS,5aS,8R,9R,10aS)-9-(tert-butyl)-9-hydroxy-2,4,7-trioxo-6-(4-(trifluoromethyl)phenyl)octahydro-4H,9H-furo [3″,2″:2′,3′]cyclopenta [1′,2′:3,4]furo [2,3-b]pyrrol-8-yl benzoate] has a viability at 50 µM (A549 cells [1]; [10]) of 46.7%, a viability at 50 µM ([2]; A549, 48 h) of 53.1% and an IC50 (A549 cells [3]; A549, 48 h) of 5.84 µM. It also gave a viability at 50 µM (Jurkat cells; [11]) of 59.6%.
`CC(C)(C)[C@]1(O)C[C@@H]2OC(=O)C[C@@]23C(=O)O[C@@H]2N(c4ccc(Cl)c(Cl)c4)C(=O)[C@H](OC(=O)c4ccccc4)[C@]213` [P-21, (3aS,5aS,8R,8aS,9R,10aS)-9-(tert-butyl)-9-hydroxy-2,4,7-trioxo-6-(3,4-dichloro-phenyl)octahydro-4H,9H-furo [3″,2″:2′,3′]cyclopenta [1′,2′:3,4]furo [2,3-b]pyrrol-8-yl benzoate] gave a viability at 50 µM (A549 cells [1]; [10]) of 56.5%, a viability at 50 µM ([2]; A549, 48 h) of 55% and an IC50 (A549 cells [3]; A549, 48 h) of 17.9 µM. The viability at 50 µM (Jurkat cells; [11]) was 53.5%.
For `CC(C)(C)[C@]1(O)C[C@@H]2OC(=O)C[C@@]23C(=O)O[C@@H]2NC(=O)[C@H](O)[C@]213` [XBB-006, (3aS,5aS,8R,8aS,9R,10aS)-9-(tert-butyl)-8,9-dihydroxytetrahydro-4H,9Hfuro[3″,2″:2′,3′]cyclopenta[1′,2′:3,4]furo[2,3-b]pyrrole-2,4,7(3H,8H)-trione], the viability at 50 µM (A549 cells [1]; A549 cells, 50 uM, 48 h, CCK-8) was 96.4%, the viability at 50 µM [2] was 99.2% and the “concentration remaining (hydrolytic stability)” value (from here on “concentration remaining”) ([4]; buffer pH 6.8, after 20 hours) was “about 80%”. The “concentration remaining” value [4, 12] was “above 80%” and the viability at 50 µM (Jurkat cells; Jurkat cells, 50 uM, CCK-8, read-out: % Viability (50 uM, 48 h) Jurkat) was 102%.
In the case of `CC(C)(C)[C@]1(O)C[C@@H]2OC(=O)C[C@@]23C(=O)O[C@@H]2OC(=O)[C@H](O)[C@]213` [bilobalide], the “cytotoxicity (cell viability)” value (HMC3 cells [5]) is reported as “no significant cytotoxicity”, the “intracellular ROS level (CellROX fluorescent staining)” value (HMC3 cells [6]) is reported as “no reduction in ROS level” and the “shift of RSL3 dose-dependent viability curve” value [7] is reported as “relatively marginal”. For the same compound, the “concentration remaining” value ([4]; buffer pH 6.8, after 20 hours) was “below 20%”, the “concentration remaining” value [4, 12] was “below 20%” and the “shift of RSL3 dose-dependent viability curve” value [8] was “relatively marginal”. For the same compound, the “lipid peroxidation level (C11-BODIPY)” value (HMC3 cells [9]) was “no significant alteration”.
For `CC(C)(C)[C@]1(O)C[C@@H]2OC(=O)C[C@@]23C(=O)O[C@@H]2N(CC45CC6CC(CC(C6)C4)C5)C(=O)[C@H](OC(=O)c4ccccc4)[C@]213` [SCC363, (3aS,5aS,8R,8aS,9R,10aS)-6-(adamantan-1-ylmethyl)-9-(tert-butyl)-9-hydroxy-2,4,7-trioxooctahydro-4H,9H-furo[3″,2″:2′,3′]cyclopenta[1′,2′:3,4]furo[2,3-b]pyrrol-8-yl benzoate], the IC50 (A549 cells [3]; 48 hours) was 9.99 µM.
`CC(C)(C)[C@]1(O)C[C@@H]2OC(=O)C[C@@]23C(=O)O[C@@H]2N(CC4C5CC6CC(C5)CC4C6)C(=O)[C@H](OC(=O)c4ccc(CN)cc4)[C@]213` (stereo partly drawn) [SCC506, (3aS,5aS,8R,8aS,9R,10aS)-6-(((1S,3S)-adamantan-2-yl)methyl)-9-(tert-butyl)-9-hydroxy-2,4,7-trioxooctahydro-4H,9H-furo[3″,2″:2′,3′]cyclopenta[1′,2′:3,4]furo[2,3-b]pyrrol-8-yl 4-(aminomethyl)benzoate hydrochloride] gave an IC50 (KP-1 cells) of 17.2 µM.
Compound `CC(C)(C)[C@]1(O)C[C@@H]2OC(=O)C[C@@]23C(=O)O[C@@H]2N(c4ccc(N5CCOCC5)cc4)C(=O)[C@H](OC(=O)c4ccccc4)[C@]213` [XBB-038, (3aS,5aS,8R,8aS,9R,10aS)-9-(tert-butyl)-9-hydroxy-6-(4-morpholinophenyl)-2,4,7-trioxooctahydro-4H,9H-furo [3″,2″:2′,3′]cyclopenta [1′,2′:3,4]furo [2,3-b]pyrrol-8-yl benzoate] has a viability at 50 µM (A549 cells [1]; [10]) of 95.3%, a viability at 50 µM ([2]; A549, 48 h) of 90.1% and a viability at 50 µM (Jurkat cells; [11]) of 84.8%.
Compound `CC(C)(C)[C@]1(O)C[C@@H]2OC(=O)C[C@@]23C(=O)O[C@@H]2N(Cc4ccccc4)C(=O)[C@H](OC(=O)c4ccccc4)[C@]213` [XBB-016] has a viability at 50 µM (A549 cells [1]; [10]) of 105%, a viability at 50 µM ([2]; A549, 48 h) of 106% and a viability at 50 µM (Jurkat cells; [11]) of 107%.
For `CC(C)(C)[C@]1(O)C[C@@H]2OC(=O)C[C@@]23C(=O)O[C@@H]2N(C4CCCC4)C(=O)[C@H](OC(=O)c4ccccc4)[C@]213` [JW081, (3aS,5aS,8R,8aS,9R,10aS)-9-(tert-butyl)-6-cyclopentyl-9-hydroxy-2,4,7-trioxooctahydro-4H,9H-furo[3″,2″:2′,3′]cyclopenta [1′,2′:3,4]furo[2,3-b]pyrrol-8-yl benzoate], the viability at 50 µM (A549 cells [1]; A549, 48 h) was 89.5%, the viability at 50 µM [2] was 88.3% and the viability at 50 µM (Jurkat cells; Jurkat, read-out: % Viability (50 uM, 48 h) Jurkat) was 87.1%.

From patent US20250144069A1, “BILOBALIDE DERIVATIVE COMPOUNDS FOR TREATING NEUROLOGICAL DISEASES AND CANCERS” (The Chinese University of Hong Kong, priority 2023, published 2025)
